System: transcription factor AP-1
Test: AP-1-driven luciferase reporter gene assay in transfected Jurkat T cells (Jurkat/AP-1rep)
Assay type: cell-based
Conditions: Jurkat/AP-1rep cells stimulated 5.5 h at 37° C. with phorbol myristate acetate and ionomycin; FIG. 1
Experimental: The compounds of formula (I) were assayed for AP-1 enhancement. The compounds of this invention were tested in assays for the modulation of stimulated activity of an AP-1-driven reporter gene in the Jurkat T cell line. The activation of this reporter gene results in luciferase production and the amounts of produced luciferase parallels the level of AP-1 activity. A high level of AP-1 activity is pivotal to e.g. high production of IL-2.
Cells from the Jurkat T cell line were transfected with an AP-1-driven luciferase gene reporter construct (Parra et al., 1997) together with a selection gene vector. Selected clones from the resulting stable AP-1 reporter gene transfectants were used in the assays for AP-1 transcription factor activity. These transfected Jurkat cells (Jurkat/AP-1rep) were grown in RPMI 1640 supplemented with glutamine, hepes, sodium pyruvate, gentamicin, 10% FCS and G418. To evaluate distinct compounds for their capacity to enhance the AP-1 activity, Jurkat/AP-1rep cells were stimulated for 5.5 h in the temperature of 37° C. with phorbol myristate acetate and ionomycin in the absence and presence of test compounds. The 96 well plates containing the cell cultures were then put on ice until harvested. […] AP-1 activity was measured as luminiscence produced by luciferase substrate, which was added to the wells in conjunction with measurement.

SMILES: CCN(CC)C(C)CNC(=O)c1ccc(NC(=O)C(C)C)cc1OC (stereo not shown) [Compound A, N-[(2-Diethylamino)propyl]-4-isobutyrylamino-2-methoxy-benzamide]
- enhancement of the AP-1 driven reporter gene activity (luciferase luminescence): enhance the activity of the AP-1 driven reporter in a dose dependent fashion down to μM concentrations

Source: US6518312B2, “Immune enhancement” (Active Biotech AB, priority 2000, dated 2003)
